Test results taken from ChEMBL document CHEMBL1921678, “The discovery of novel cyclohexylamide CCR2 antagonists” (Bioorg Med Chem Lett, 2011).
Activity calls are given as the source filed them. No cut-off for these calls is given here.

Assays:
[1] = target: C-C chemokine receptor type 2 (Homo sapiens, UniProt P41597); experiment: Antagonist activity at human CCR2; assay type: functional
[2] = target: T1, Voltage-gated inwardly rectifying potassium channel KCNH2 (Homo sapiens, UniProt Q12809); experiment: Inhibition of human ERG
T1 sequence (Q12809 whole entry): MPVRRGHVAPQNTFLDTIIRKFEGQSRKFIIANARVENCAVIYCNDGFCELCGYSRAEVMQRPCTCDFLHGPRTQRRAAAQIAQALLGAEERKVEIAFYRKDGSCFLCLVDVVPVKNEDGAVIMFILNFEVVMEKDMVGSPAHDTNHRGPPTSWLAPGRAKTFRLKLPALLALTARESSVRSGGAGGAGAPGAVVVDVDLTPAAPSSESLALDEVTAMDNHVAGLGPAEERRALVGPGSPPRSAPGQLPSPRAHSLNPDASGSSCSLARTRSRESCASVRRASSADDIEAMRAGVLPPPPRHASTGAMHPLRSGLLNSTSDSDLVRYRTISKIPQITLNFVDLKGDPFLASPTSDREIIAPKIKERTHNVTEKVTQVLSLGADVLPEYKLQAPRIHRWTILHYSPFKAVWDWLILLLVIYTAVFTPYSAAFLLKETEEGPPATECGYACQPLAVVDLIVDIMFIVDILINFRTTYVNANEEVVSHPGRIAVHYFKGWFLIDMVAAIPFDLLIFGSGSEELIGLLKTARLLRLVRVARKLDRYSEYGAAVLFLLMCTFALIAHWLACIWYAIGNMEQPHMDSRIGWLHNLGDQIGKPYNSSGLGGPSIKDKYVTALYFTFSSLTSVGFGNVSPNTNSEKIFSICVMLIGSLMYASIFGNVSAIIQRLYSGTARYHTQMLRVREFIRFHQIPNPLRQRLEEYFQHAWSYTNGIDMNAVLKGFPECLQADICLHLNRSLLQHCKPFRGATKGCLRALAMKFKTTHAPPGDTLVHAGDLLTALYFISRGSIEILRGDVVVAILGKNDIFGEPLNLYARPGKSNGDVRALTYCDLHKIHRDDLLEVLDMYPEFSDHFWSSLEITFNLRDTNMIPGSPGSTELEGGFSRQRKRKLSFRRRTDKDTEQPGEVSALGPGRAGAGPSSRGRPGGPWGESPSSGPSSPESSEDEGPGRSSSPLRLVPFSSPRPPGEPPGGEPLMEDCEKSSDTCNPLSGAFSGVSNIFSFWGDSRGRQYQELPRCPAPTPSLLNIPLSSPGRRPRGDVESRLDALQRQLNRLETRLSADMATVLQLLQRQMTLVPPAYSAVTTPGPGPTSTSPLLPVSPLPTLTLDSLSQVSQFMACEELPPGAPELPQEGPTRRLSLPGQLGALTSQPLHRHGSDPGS

[3] = target: C-C chemokine receptor type 2 (Mus musculus) (UniProt P51683); experiment: Antagonist activity at mouse CCR2; assay type: functional
Chain of C-C chemokine receptor type 2 (Mus musculus) (P51683 whole entry, looked up): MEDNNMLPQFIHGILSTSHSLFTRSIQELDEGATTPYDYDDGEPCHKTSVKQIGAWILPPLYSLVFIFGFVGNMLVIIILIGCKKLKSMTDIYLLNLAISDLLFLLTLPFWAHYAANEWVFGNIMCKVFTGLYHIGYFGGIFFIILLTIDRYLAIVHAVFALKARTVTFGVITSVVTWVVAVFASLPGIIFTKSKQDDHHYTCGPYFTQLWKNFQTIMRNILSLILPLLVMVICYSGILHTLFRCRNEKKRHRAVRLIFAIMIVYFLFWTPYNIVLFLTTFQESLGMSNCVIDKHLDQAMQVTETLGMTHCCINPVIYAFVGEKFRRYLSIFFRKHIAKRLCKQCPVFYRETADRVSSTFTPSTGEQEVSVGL

Mus musculus = experiment: Antiinflammatory activity in human CCR2 transgenic C57BL/6 mouse assessed as reduction of thioglycollate-induced peritonitis at 30 mg/kg, po; assay type: functional, organism-based; parameters: dose 30 mg/kg
[4] = Volume of distribution at steady state in mouse at 2 mg/kg, iv; assay type: ADME, organism-based; parameters: dose 2 mg/kg, route intravenous; settings: in vivo, read-out: Vdss
[5] = AUC in mouse at 10 mg/kg, po; assay type: ADME, organism-based; parameters: dose 10 mg/kg, route oral; settings: plasma
Cavia porcellus [6] = experiment: Cardiotoxicity in guinea pig hemodynamic model assessed as PR interval at 10 mg/kg, iv; assay type: toxicity, organism-based; parameters: dose 10 mg/kg, route intravenous; settings: in vivo
[7] = Clearance in mouse at 2 mg/kg, iv; assay type: ADME, organism-based; parameters: dose 2 mg/kg, route intravenous; settings: in vivo
Cavia porcellus [8] = experiment: Cardiotoxicity in guinea pig hemodynamic model assessed as QRS duration at 10 mg/kg, iv; assay type: toxicity, organism-based; parameters: dose 10 mg/kg, route intravenous; settings: in vivo
[9] = Initial plasma concentration in mouse at 2 mg/kg, iv; assay type: ADME, organism-based; parameters: dose 2 mg/kg, route intravenous
Cavia porcellus [10] = experiment: Cardiotoxicity in guinea pig hemodynamic model assessed as QTc at 10 mg/kg, iv; assay type: toxicity, organism-based; parameters: dose 10 mg/kg, route intravenous; settings: in vivo
[11] = Half life in mouse at 2 mg/kg, iv; assay type: ADME, organism-based; parameters: dose 2 mg/kg, route intravenous; settings: in vivo
[12] = Cmax in mouse at 10 mg/kg, po; assay type: ADME, organism-based; parameters: dose 10 mg/kg, route oral; settings: in vivo
[13] = Oral bioavailability in mouse at 10 mg/kg; assay type: ADME, organism-based; settings: in vivo
[14] = target: T1, Voltage-gated inwardly rectifying potassium channel KCNH2; experiment: Binding affinity to human ERG
[15] = Half life in mouse at 10 mg/kg, po; assay type: ADME, organism-based; parameters: dose 10 mg/kg, route oral; settings: in vivo
[16] = target: T1, Voltage-gated inwardly rectifying potassium channel KCNH2; experiment: Inhibition of human ERG by patch clamp assay
Cavia porcellus [17] = experiment: Cardiotoxicity in guinea pig hemodynamic model assessed as heart rate at 10 mg/kg, iv; assay type: toxicity, organism-based; parameters: dose 10 mg/kg, route intravenous; settings: in vivo
Cavia porcellus [18] = experiment: Cardiotoxicity in guinea pig hemodynamic model assessed as mean arterial pressure at 10 mg/kg, iv; assay type: toxicity, organism-based, Artery; parameters: dose 10 mg/kg, route intravenous; settings: in vivo
Cavia porcellus [19] = experiment: Cardiotoxicity in guinea pig hemodynamic model assessed as QT interval at 10 mg/kg, iv; assay type: toxicity, organism-based; parameters: dose 10 mg/kg, route intravenous; settings: in vivo

Chain of C-C chemokine receptor type 2 (P41597 whole entry): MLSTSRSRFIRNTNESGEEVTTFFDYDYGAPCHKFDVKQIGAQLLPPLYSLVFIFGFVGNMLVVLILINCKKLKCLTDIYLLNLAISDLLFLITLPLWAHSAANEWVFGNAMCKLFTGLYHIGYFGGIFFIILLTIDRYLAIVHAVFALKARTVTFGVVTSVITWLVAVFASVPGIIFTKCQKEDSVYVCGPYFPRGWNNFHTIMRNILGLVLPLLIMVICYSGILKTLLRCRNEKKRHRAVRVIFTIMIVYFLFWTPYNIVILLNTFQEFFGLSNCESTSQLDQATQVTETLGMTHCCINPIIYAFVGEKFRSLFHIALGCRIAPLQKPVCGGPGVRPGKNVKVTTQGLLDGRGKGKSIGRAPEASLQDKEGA

Row | SMILES | IC50 [1] [nM] | INH [2] [µM] | also measured
1 | NC(=O)C(NC1CCC(c2c[nH]c3ccccc23)CC1)C1CCN(C(=O)c2ccccc2)CC1 (centres undefined) | > 25000 | 5.471 | 
2 | NC(=O)C(NC1CCC(c2c[nH]c3ccccc23)CC1)C1CCN(C(=O)Cc2ccccc2)CC1 (centres undefined) | > 25000 | 17.636 | 
3 | NC(=O)C(NC1CCC(c2c[nH]c3ccccc23)CC1)C1CCN(C(=O)/C=C/c2cc(F)cc(F)c2)CC1 (racemic) [listing 1 of 2 here] |  |  | inhibition [3]: inactive; Activity (Mus musculus): Active
4 | NC(=O)C(NC1CCC(c2c[nH]c3ccccc23)CC1)C1CCN(C(=O)/C=C/c2ccc(F)c(F)c2)CC1 (centres undefined) | 38 | 1.714 | 
5 | NC(=O)C(NC1CCC(c2c[nH]c3ccccc23)CC1)C1CCN(C(=O)/C=C/c2ccccc2F)CC1 (centres undefined) |  | 4.128 | 
6 | NC(=O)C(NC1CCC(c2c[nH]c3ccncc23)CC1)C1CCN(C(=O)/C=C/c2cc(F)c(F)c(F)c2)CC1 (centres undefined) | 83 | 0.97 | 
7 | CC(NC1CCC(c2c[nH]c3ccccc23)CC1)C1CCN(C(=O)/C=C/c2cc(F)c(F)c(F)c2)CC1 (centres undefined) | 8600 | 0.29 | 
8 | O=C1NC2(CCC(c3c[nH]c4ccccc34)CC2)NC1C1CCN(C(=O)/C=C/c2cc(F)c(F)c(F)c2)CC1 (centres undefined) | 5200 |  | 
9 | NC(=O)C(NC1CCC(c2c[nH]c3ccccc23)CC1)C1CCN(C(=O)/C=C/c2cccc(F)c2)CC1 (centres undefined) | 64 | 2.076 | 
10 | NC(=O)C(NC1CCC(c2c[nH]c3ccccc23)CC1)C1CCN(C(=O)/C=C\c2cc(F)cc(F)c2)CC1 (cis isomer) |  | 2.2 | 
11 | NC(=O)C(NC1CCC(c2c[nH]c3ccccc23)CC1)C1CCN(C(=O)/C=C/c2cc(F)cc(F)c2)CC1 (single isomer, unassigned; (-)) |  | 20.375 | 
12 | NC(=O)C(NC1CCC(c2c[nH]c3ccccc23)CC1)C1CCN(C(=O)/C=C/c2cc(F)cc(F)c2)CC1 (trans isomer) |  | 6.6 | 
13 | NC(=O)C(NC1CCC(c2ccccc2)C1)C1CCN(C(=O)/C=C/c2cc(F)c(F)c(F)c2)CC1 (centres undefined) | 1300 |  | 
14 | NC(=O)C(NC1CCC(C2CNc3ccccc32)CC1)C1CCN(C(=O)/C=C/c2cc(F)c(F)c(F)c2)CC1 (centres undefined) | 950 | 4.2 | 
15 | NC(=O)C(NC1CCC(c2c[nH]c3cccnc23)CC1)C1CCN(C(=O)/C=C/c2cc(F)c(F)c(F)c2)CC1 (centres undefined) | 35 | 6.3 | 
16 | NC(=O)C(NC1CCC(c2c[nH]c3ccccc23)CC1)C1CCN(C(=O)/C=C/c2ccc(C(F)(F)F)cc2)CC1 (centres undefined) |  | 1.08 | 
17 | NC(=O)C(NC1CCC(c2c[nH]c3cnccc23)CC1)C1CCN(C(=O)/C=C/c2cc(F)c(F)c(F)c2)CC1 (centres undefined) | 2200 | < 0.2 | 
18 | NC(=O)C(NC1CCC(c2c[nH]c3ccccc23)CC1)C1CCN(C(=O)C2CC2c2ccccc2)CC1 (mixture of isomers) | 1300 |  | 
19 | NC(=O)C(NC1CCC(c2c[nH]c3ccccc23)CC1)C1CCN(Cc2ccccc2)CC1 (centres undefined) | > 25000 | 1.769 | 
20 | NC(=O)C(NC1Cc2ccccc2C1)C1CCN(C(=O)/C=C/c2cc(F)c(F)c(F)c2)CC1 (centres undefined) | 1400 |  | 
21 | CN(C)C(=O)C(NC1CCC(c2c[nH]c3ccccc23)CC1)C1CCN(C(=O)/C=C/c2cc(F)c(F)c(F)c2)CC1 (centres undefined) |  | 4.4 | 
22 | COC(=O)C(NC1CCC(c2c[nH]c3ccccc23)CC1)C1CCN(C(=O)/C=C/c2cc(F)c(F)c(F)c2)CC1 (centres undefined) | 900 | 2.2 | 
23 | O=C(O)C(NC1CCC(c2c[nH]c3ccccc23)CC1)C1CCN(C(=O)/C=C/c2cc(F)c(F)c(F)c2)CC1 (centres undefined) | 50 | 31 | 
24 | NC(=O)C(NC1CCC(c2c[nH]c3ccccc23)CC1)C1CCN(C(=O)Nc2ccccc2)CC1 (centres undefined) | 9570 | 14.784 | 

Row | SMILES | IC50 [1] [nM] | INH [2] [µM] | also measured
25 | O=C(/C=C/c1cc(F)c(F)c(F)c1)N1CCC(C(CO)NC2CCC(c3c[nH]c4ccccc34)CC2)CC1 (centres undefined) | 9200 | 0.52 | 
26 | NC(=O)C(NC1CCP(=O)(c2ccccc2)CC1)C1CCN(C(=O)/C=C/c2cc(F)c(F)c(F)c2)CC1 (centres undefined) | > 25000 |  | 
27 | CC(C)C1CCC(NC(C(N)=O)C2CCN(C(=O)/C=C/c3cc(F)c(F)c(F)c3)CC2)CC1 (centres undefined) | 15800 | 6.2 | 
28 | CNC(=O)C(NC1CCC(c2c[nH]c3ccccc23)CC1)C1CCN(C(=O)/C=C/c2cc(F)c(F)c(F)c2)CC1 (centres undefined) |  | 5.4 | 
29 | NC(=O)C(NC1CCC(c2ccccc2)CC1)C1CCN(C(=O)/C=C/c2cc(F)c(F)c(F)c2)CC1 (centres undefined) | 6000 | 3.4 | 
30 | CS(=O)(=O)c1ccc(/C=C/C(=O)N2CCC(C(NC3CCC(c4c[nH]c5ccccc45)CC3)C(N)=O)CC2)cc1 (centres undefined) | 11600 | > 50 | 
31 | NC(=O)C(NC1CCC(c2c[nH]c3ccccc23)CC1)C1CCN(C(=O)/C=C/c2cc(F)cc(F)c2)CC1 (racemic) [listing 2 of 2 here] |  | 4.906 | Vd [4]: 3.71 L/kg; AUC [5]: 2420 ng·h/mL; Activity (Cavia porcellus [6]): Non-toxic; clearance [7]: 31 mL/min/kg; Activity (Cavia porcellus [8]): Non-toxic; C0 [9]: 1020 ng/mL; Activity (Cavia porcellus [10]): Non-toxic; half-life [11]: 1.9 h; Cmax [12]: 531 ng/mL; bioavailability [13]: 50%; INH [14]: 8 µM; half-life [15]: 2.4 h; INH [16]: 600 nM; Activity (Cavia porcellus [17]): Non-toxic; Activity (Cavia porcellus [18]): Non-toxic; Activity (Cavia porcellus [19]): Non-toxic
32 | NC(=O)C(NC1CCC(c2c[nH]c3ccccc23)CC1)C1CCN(C(=O)/C=C/c2c(F)cccc2F)CC1 (centres undefined) | > 25000 | 3.734 | 
33 | COc1ccc(C2CCC(NC(C(N)=O)C3CCN(C(=O)/C=C/c4cc(F)c(F)c(F)c4)CC3)CC2)cn1 (centres undefined) |  | 11.7 | 
34 | NC(=O)C(NC1CCc2ccccc21)C1CCN(C(=O)/C=C/c2cc(F)c(F)c(F)c2)CC1 (centres undefined) | 2300 |  | 
35 | NC(=O)C(NC1CCC(c2c[nH]c3ccccc23)CC1)C1CCN(C(=O)/C=C/c2ccccc2)CC1 (centres undefined) |  | 7.35 | 
36 | NC(=O)C(NC1CCC(c2c[nH]c3ccccc23)CC1)C1CCN(C(=O)/C=C/c2ccc(OC(F)(F)F)cc2)CC1 (centres undefined) |  | 1.39 | 
37 | NC(=O)C(NC1CCC(c2c[nH]c3ncccc23)CC1)C1CCN(C(=O)/C=C/c2cc(F)c(F)c(F)c2)CC1 (centres undefined) |  | 8.3 | 
38 | NC(=O)C(NC1CCC(c2c[nH]c3ccccc23)CC1)C1CCN(C(=O)/C=C/c2cc(F)c(F)c(F)c2)CC1 (centres undefined) |  | 3.3 | 
39 | O=C(NO)C(NC1CCC(c2c[nH]c3ccccc23)CC1)C1CCN(C(=O)/C=C/c2cc(F)c(F)c(F)c2)CC1 (centres undefined) |  | 41 | 
40 | NC(=O)C(NC1CCC(c2c[nH]c3ccccc23)CC1)C1CCN(C(=O)/C=C/c2ccc(F)cc2)CC1 (centres undefined) | 36 | 2.02 | 
41 | CN(C1CCC(c2c[nH]c3ccccc23)CC1)C(C(=O)O)C1CCN(C(=O)/C=C/c2cc(F)c(F)c(F)c2)CC1 (centres undefined) | 8100 |  | 
42 | NC(=O)C(NC1CCC(c2c[nH]c3ccccc23)CC1)C1CCN(C(=O)CCc2ccccc2)CC1 (centres undefined) | > 25000 |  | 
43 | CN(C)c1ccc(/C=C/C(=O)N2CCC(C(NC3CCC(c4c[nH]c5ccccc45)CC3)C(N)=O)CC2)cc1 (centres undefined) | 1890 | > 50 | 
44 | O=C(O)C(C1CCN(C(=O)/C=C/c2cc(F)c(F)c(F)c2)CC1)N1CCC(c2c[nH]c3ccccc23)CC1 (centres undefined) |  | 1.5 | 
45 | O=C(/C=C/c1cc(F)c(F)c(F)c1)N1CCC(CNC2CCC(c3c[nH]c4ccccc34)CC2)CC1 (centres undefined) | 25000 |  | 
46 | NC(=O)C(NC1CCC(c2c[nH]c3ccccc23)CC1)C1CCN(C(=O)/C=C/c2ccc(Cl)cc2)CC1 (centres undefined) |  | 0.87 | 
47 | NC(=O)C(NC1CCC(c2c[nH]c3ccccc23)CC1)C1CN(C(=O)/C=C/c2cc(F)c(F)c(F)c2)C1 (centres undefined) | > 25000 |  | 
